Experiments:
[1] = In vitro skin permeation from TTS through human skin (two-compartment diffusion cell); format: in vitro ADME; conditions: TTS on human skin, 32±1° C., 96 hours, FIG. 1
Protocol: Furthermore the permeability of the prodrugs through the skin was measured by in vitro skin permeation. The in vitro skin permeation of the prodrugs (1), (2) and (6) and of cilazapril through human skin was evaluated using the TTS as prepared in any one of examples 8, 9, and 11.
The flux was determined by using a two-compartment diffusion cell with a section of human skin mounted between the cell halves. A TTS was adhered to one side of the skin and a drug-receiving medium was placed on the receptor-side of the cell. The apparatus was placed in a water bath maintained at 32±1° C. Samples of the receptor medium were collected over a period of 96 hours for HPLC analysis of drug concentration.

[2] = Stability in transdermal therapeutic system (10% in BioPSA Hex 7-4302), extraction and HPLC; format: physicochemical; conditions: TTS
Protocol: The stability of the prodrugs in the transdermal therapeutic system was determined after different storage times and temperatures by extraction of the transdermal therapeutic system with an organic solvent and subsequent analysis by HPLC.
The stability of the cilazapril prodrugs (1) and (2) in therapeutic transdermal systems was controlled at 25° C./60% relative humidity and compared with the cilazapril in a TTS having the same adhesive layer.

[3] = Crystallization in the TTS; format: physicochemical; conditions: after 14 months
Description: Moreover, the TTSs with the prodrugs (1), (2) and (6) were examined with regard to crystallization.

[4] = Rate of hydrolysis in porcine skin homogenate at 37° C. (HPLC or HPLC-MS); format: in vitro ADME; conditions: for reaction kinetics in porcine skin homogenate: in words; for half-life: pig
Protocol: (§1) To assess whether the synthesised cilazapril prodrugs undergo enzymatic cleavage, metabolic studies were carried out in three well established incubation media for the investigation of transdermal administration.
Due to its similarities with human skin, in terms of enzyme activity and distribution, a porcine skin homogenate (25% w/w in PBS-buffer, 0.65 U/ml, 1.3 mg/ml (Bradford)) was used for the metabolic studies.
(§2) Incubation mixtures were prepared by adding a respective prodrug stock solution to porcine skin homogenate (PSH), human plasma and buffered porcine liver esterase (PLE), respectively.
(§3) All samples were incubated in a water bath at 37° C. After 72 h samples of the incubation mixtures (200 μl) were collected. To all samples 400 μl of ice-cold acetonitrile were added. After vortex mixing the samples were allowed to stand in a refrigerator for approx. 30 min. The samples were then centrifuged at 13000 rpm (13000 g) for 5 min. The supernatants were collected and stored at −78° C. until HPLC analysis. To 200 μl of each supernatant 400 μl of aqueous 0.05% trifluoroacetic acid were added prior to injection.
(§4) The kinetics of the hydrolysis of the cilazapril prodrugs in the different incubation media was analysed by HPLC or HPLC-MS.
(§5) The rate of hydrolysis of cilazapril, of some cilazapril prodrugs and cilazapril ethyl ester in porcine skin homogenate, human plasma and buffered porcine liver esterase at 37° C. are presented in Table 4.

[5] = Metabolic studies in enzyme-containing incubation mixtures (porcine skin homogenate, human plasma, buffered porcine liver esterase), results in words; format: in vitro ADME; conditions: 37° C.; for degradation / reaction kinetics of enzymatic hydrolysis: enzyme-containing incubation mixtures; for enzymatic cleavage / hydrolysis to cilazaprilate: incubation mixtures
Protocol: as §1
(§6) Buffered porcine liver esterase (suspension in 3.2 M (NH4)2SO4 solution, pH 8, 12 mg prot./ml (Biuret), 260 U/mg prot.) was chosen as the third incubation media, because porcine liver esterase mimics the carboxylesterase present in the human skin.
as §2
as §3, with “After 72 h samples of the incubation mixtures (200 μl) were collected.” left out
as §4

[6] = system: porcine liver esterase; test: Rate of hydrolysis in buffered porcine liver esterase at 37° C. (HPLC or HPLC-MS); format: in vitro ADME; conditions: for half-life: pig
Protocol: as §1, §6, §2, §3, §4, §5

[7] = in vitro; format: in vitro ADME
Protocol: as §1
Human plasma (CPD plasma, 3.82 U/ml), which contains i.a. cholinesterase and acetylcholinesterase, was used as the second incubation media.
as §2, §3, §4, §5

[8] = Stability of 10% cilazapril in an acrylic adhesive (Durotak 87-4098, Henkel); format: physicochemical; conditions: 10% in acrylic adhesive Durotak 87-4098
Description: Instability in a semisolid dosage form is also a problem with cilazapril. Although cilazapril has a more rigid structure than other ACE-inhibitors and has no distinct tendency to intramolecular cyclisation, it presents stability problems in adhesive layers of transdermal therapeutic systems as shown in Table 1.

[9] = 9 months, 25° C./60% relative humidity
[10] = porcine skin homogenate, 37° C.

| SMILES | in vitro skin flux compared to the cilazapril TTS [1] | assay [%] ([2]; 0 months, uncontrolled) | assay [%] [2, 9] [%] | crystallization in the TTS [3] | reaction kinetics in porcine skin homogenate [4] | half-life [4, 10] [h] | degradation / reaction kinetics of enzymatic hydrolysis [5] | enzymatic cleavage / hydrolysis to cilazaprilate [5] | half-life [6] [h] | f50% (h), time by which 50% of total cilazaprilate has been formed ([7]; human) [h] | half-life ([7]; human, plasma) [h] | further results |
| --- | --- | --- | --- | --- | --- | --- | --- | --- | --- | --- | --- | --- |
| CCOC(=O)OC(C)OC(=O)[C@@H]1CCCN2CCCC(N[C@@H](CCc3ccccc3)C(=O)OCC)C(=O)N12 (stereo partly drawn) [compound 1, (1S,9S)-1-(ethoxycarbonyloxy)ethyl 9-[[(1S)-1-ethoxycarbonyl-3-phenylpropyl]amino]-10-oxooctahydro-1H-pyridazino[1,2-a][1,2]diazepine-1-carboxylate] | increase in in vitro skin flux | 99.3 | 98.0 | none of the TTS showed crystallization | fast reaction kinetics | 0.43 | fast degradation | formation of cilazaprilate as the final metabolite | 0.67 | 154 | 0.58 | – |
| CCOC(=O)[C@H](CCc1ccccc1)N[C@H]1CCCN2CCC[C@@H](C(=O)O)N2C1=O [cilazapril, (1S,9S)-9-[[(1S)-1-ethoxycarbonyl-3-phenylpropyl]amino]octahydro-10-oxo-6H-pyridazino[1,2-a][1,2]diazepine-1-carboxylic acid, reference compound] | – | 99.8 | 97.0 | – | – | 9.4 | – | – | 3.3 | – | – | assay [%] ([8]; 0 months, uncontrolled): 98.1%; assay [%] ([8]; 3 weeks, 25° C./60% relative humidity): 98.0%; assay [%] ([8]; 3 weeks, 40° C./75% relative humidity): 95.9%; assay [%] ([8]; 7 months, 25° C./60% relative humidity): 91.9%; assay [%] ([8]; 7 months, 40° C./75% relative humidity): 80.4%; half-life ([7]; human plasma, 37° C., read-out: t1/2 (converted)): 88.8 h |
| CCOC(=O)[C@H](CCc1ccccc1)N[C@H]1CCCN2CCC[C@@H](C(=O)OCCN3CCOCC3)N2C1=O [compound 6, (1S,9S)-2-morpholinoethyl 9-[[(1S)-1-ethoxycarbonyl-3-phenylpropyl]amino]-10-oxooctahydro-1H-pyridazino[1,2-a][1,2]diazepine-1-carboxylate] | increase in in vitro skin flux | 98.1 | 94.7 | none of the TTS showed crystallization | fast reaction kinetics | 0.5 | fast reaction kinetics | – | 0.95 | 10.8 | 1.3 | – |
| CCOC(=O)[C@H](CCc1ccccc1)NC1CCCN2CCC[C@@H](C(=O)OC(C)OC(=O)OC3CCCCC3)N2C1=O (stereo partly drawn) [compound 2, (1S,9S)-1-(cyclohexyloxycarbonyloxy)ethyl 9-[[(1S)-1-ethoxycarbonyl-3-phenylpropyl]amino]-10-oxooctahydro-1H-pyridazino[1,2-a][1,2]diazepine-1-carboxylate] | increase in in vitro skin flux | 100.0 | 98.3 | none of the TTS showed crystallization | fast reaction kinetics | 1.4 | fast degradation | formation of cilazaprilate as the final metabolite | 4.2 | 228 | 3.2 | – |
| CCOC(=O)[C@H](CCc1ccccc1)NC1CCCN2CCC[C@@H](C(=O)OC(C)OC(=O)C(C)(C)C)N2C1=O (stereo partly drawn) [compound 5, (1S,9S)-1-(2,2-dimethylpropanoyloxy)ethyl 9-[[(1S)-1-ethoxycarbonyl-3-phenylpropyl]amino]-10-oxooctahydro-1H-pyridazino[1,2-a][1,2]diazepine-1-carboxylate] | – | – | – | – | – | 1 | fast degradation | formation of cilazaprilate as the final metabolite | 3.8 | 33.6 | 5.1 | – |
| CCOC(=O)[C@H](CCc1ccccc1)NC1CCCN2CCC[C@@H](C(=O)OC(C)OC(C)=O)N2C1=O (stereo partly drawn) [compound 4, (1S,9S)-1-(acetoxy)ethyl 9-[[(1S)-1-ethoxycarbonyl-3-phenylpropyl]amino]-10-oxooctahydro-1H-pyridazino[1,2-a][1,2]diazepine-1-carboxylate] | – | – | – | – | – | 0.5 | fast degradation | formation of cilazaprilate as the final metabolite | 0.63 | 91.2 | 0.68 | – |
| CCOC(=O)[C@H](CCc1ccccc1)NC1CCCN2CCC[C@@H](C(=O)OC(C)OC(=O)OC(C)C)N2C1=O (stereo partly drawn) [compound 3, (1S,9S)-1-(isopropyloxycarbonyloxy)ethyl 9-[[(1S)-1-ethoxycarbonyl-3-phenylpropyl]amino]-10-oxooctahydro-1H-pyridazino[1,2-a][1,2]diazepine-1-carboxylate] | – | – | – | – | – | 1 | fast degradation | formation of cilazaprilate as the final metabolite | 1.5 | 108 | 1.9 | – |
| CCOC(=O)[C@H](CCc1ccccc1)N[C@H]1CCCN2CCC[C@@H](C(=O)OCC)N2C1=O [cilazapril ethyl ester, reference compound] | – | – | – | – | – | – | – | no hydrolysis to cilazaprilate was detectable | – | – | – | t1/2 [4, 10]: 0.35 h; enzymatic cleavage / hydrolysis to cilazaprilate ([5]; listed as ethyl ester of cilazapril): stable against enzymatic cleavage; t1/2 [6]: 0.69 h; t1/2 ([7]; human plasma, 37° C.): 11.9 h |
| CCOC(=O)[C@H](CCc1ccccc1)NC1CCCN2CCC[C@@H](C(=O)OC(C)OC(=O)CN3CCOCC3)N2C1=O (stereo partly drawn) [compound 7, (1S,9S)-1-(2-morpholinoacetoxy)ethyl 9-[[(1S)-1-ethoxycarbonyl-3-phenylpropyl]amino]-10-oxooctahydro-1H-pyridazino[1,2-a][1,2]diazepine-1-carboxylate] | – | – | – | – | – | 0.33 | fast reaction kinetics | – | 0.77 | 132 | 0.83 | – |
